# Earlier results in patent US20130065959A1, “SANITIZING MEAT WITH PERACID AND 2-HYDROXY ORGANIC ACID COMPOSITIONS” (Fresh Express Incorporated, priority 2009, published 2013).
# Conditions: cited from earlier work
row,SMILES,Oxidation Capacity [eV]
1,[O][Cl+][O-] [Chlorine Dioxide],1.57
2,O=[O+][O-] [Ozone],2.07
3,"OCl [Sodium hypochlorite (Chlorine bleach), Sodium hypochlorite]",1.36
